Blank lines part the entries; values can stand above or below the sequence they belong to.
Biological target: T1, MyD88^TIR (Homo sapiens, UniProt Q99836)
T1 construct: MyD88 (residues 148–296); 6xHis; made in house; host or cells: E. coli BL21 (DE3)
Assay: T‐Surf phage library (P8 and P3) selection against MyD88^TIR, four rounds, NGS read counts
Assay type: binding
Details: for P3_MyD88 Rank (after) / P3_MyD88 Rank (before): P3 library; for Population: 4th round of selection against MyD88 TIR, share of NGS reads; for P8_MyD88 Rank (after) / P8_MyD88 Rank (before): P8 library
Experimental: T‐Surf libraries were screened against the immobilized TIR domains of two major human TLR adaptor proteins, MAL^TIR and MyD88^TIR, allowing cross‐species selection of TIR‐binding motifs with 190 946 TIR‐derived peptides in a single binding assay (Scheme 1). Enriched phage pools from the fourth round of selection were analyzed using NGS after barcoding the peptide‐coding regions of the phage pools.
Phage display screening was performed by coating two wells of a 96‐well plate (Maxisorp, Thermo Fisher Scientific) with 100 µL of 5 µg mL^−1 TIR domains overnight; then, the coated wells were blocked with 200 µL of blocking buffer (0.2% BSA in PBS) and set aside for 1 h at 4 °C with gentle shaking. Next, 100 µL of the phage library was added to the wells and incubated for 1 h at room temperature (RT; 20 – 22 °C) with gentle shaking. The plate was washed four times with PBS containing 0.5% Tween‐20; the bound phages were eluted by adding 100 µL of 100 mM HCl to each well. The elute was neutralized with 10 µL of 1.0 M Tris‐HCl (pH 11.0). E. coli TG1 cells were grown to the log phase (A600 = ≈0.6), and 1 mL of the culture was incubated with 100 µL of the eluted phages for 30 min at 37 °C, with shaking at 200 rpm. Next, 1 µL of M13KO7 helper phages was added, followed by incubation for 45 min at 37 °C, with shaking. Subsequently, the cells were transferred to 25 mL of 2× yeast extract tryptone/carbenicillin/kanamycin medium and incubated overnight at 37 °C with shaking at 200 rpm. The amplified phages were precipitated with 20% PEG‐8000/2.5 M NaCl to be used for the next round of selection.
The naïve T‐Surf libraries in P8 and P3 and the enriched phage pools after four rounds were barcoded for NGS as previously described.^[ [59] ^] Briefly, 5 µL of the phage pool was used as a template for 20 cycles of a 50 µL PCR reaction using […] each of forward and reverse barcoded primers and PrimeSTAR Max DNA Polymerase. The PCR products were purified using Expin Gel SV (GeneAll). The NGS samples were quantified using qPCR, following the qPCR Quantification Protocol Guide (KAPA Library Quantification kits for Illumina Sequencing Platform), and qualified using the TapeStation High Sensitivity D1000 ScreenTape (Agilent Technologies). The indexed libraries were further sequenced by Macrogen (Seoul, Republic of Korea) using the NovaSeq platform (Illumina) with 100 bp paired‐end reads. The reads were demultiplexed by barcodes and filtered for an average Phred quality score of at least 30, followed by trimming the flanking consensus sequences using Cutadapt (version 2.3). Peptide sequence populations were analyzed according to the read counts.

[1] = 4R selection against MyD88, rank after grouping
[2] = 4R selection against MyD88, rank before grouping
[3] = P3_MyD88 pool: P3 T-Surf phage library
[4] = selection against MyD88 TIR, rank by count after grouping
[5] = selection against MyD88 TIR, rank by count before grouping
[6] = selection against MyD88, rank after grouping
[7] = selection against MyD88, rank before grouping
[8] = P8_MyD88: rank by NGS read count after grouping
[9] = P8_MyD88: rank by NGS read count before grouping
[10] = P8_MyD88: rank by count after grouping
[11] = P8_MyD88: rank by count before grouping
[12] = P8_MyD88 pool: P8 T-Surf phage library
[13] = selection against MyD88, rank by count after grouping
[14] = selection against MyD88, rank by count before grouping

T1 sequence (Q99836 148-296): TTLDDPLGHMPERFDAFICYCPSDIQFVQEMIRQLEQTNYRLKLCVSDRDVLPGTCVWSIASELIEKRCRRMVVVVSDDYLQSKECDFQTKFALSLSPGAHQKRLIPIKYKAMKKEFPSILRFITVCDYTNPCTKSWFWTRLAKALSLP

P3_MyD88 Rank (after) [1]: 610 | P3_MyD88 Rank (before) [2]: 1533
Sequence: YAFTGHLHRYIEQRSG

Population [3]: 0.00408%
Sequence: SNFREGLWRLLELSKK

P8_MyD88 Rank (after) [4]: 241 | P8_MyD88 Rank (before) [5]: 2986
Sequence: DPQELDWYYERLVSLF

P3_MyD88 Rank (after) [6]: 509 | P3_MyD88 Rank (before) [7]: 3216
Sequence: SSFREGPWRLLALSKK

Rank (after) [8]: 989 | Rank (before) [9]: 1854
Sequence: YASSSWYLAELVHMPW

P3_MyD88 Rank (after) [4]: 197 | P3_MyD88 Rank (before) [5]: 2486
Sequence: LKVESWRQALAKAGRL

Rank (after) [8]: 905 | Rank (before) [9]: 1547
Sequence: WALNELLKILQAKIFL

P8_MyD88 Rank (after) [4]: 272 | P8_MyD88 Rank (before) [5]: 524
Sequence: WDFASSTWWLRELLQIA

P8_MyD88 Rank (after) [4]: 281 | P8_MyD88 Rank (before) [5]: 2908
Sequence: DPQDLQWFCERLVSLF

Rank (after) [10]: 168 | Rank (before) [11]: 189 | Population [12]: 0.00655%
Sequence: AWTDDPVGQLFFWESL

P8_MyD88 Rank (after) [1]: 586 | P8_MyD88 Rank (before) [2]: 1640
Sequence: WDYASNVELFWGRMNY

Rank (after) [8]: 946 | Rank (before) [9]: 2377
Sequence: DFSHFWLFEAGGDAD

Rank (after) [10]: 395 | Rank (before) [11]: 1410
Sequence: WALAELLQLLHARELF

P3_MyD88 Rank (after) [13]: 683 | P3_MyD88 Rank (before) [14]: 1770
Sequence: VDPSHLRKQSGEFG

Rank (after) [10]: 472 | Rank (before) [11]: 2901
Sequence: DPQDLLRFYEHLVSLF

P8_MyD88 Rank (after) [13]: 714 | P8_MyD88 Rank (before) [14]: 2987
Sequence: DPQELDWIYQRLVSLF

P3_MyD88 Rank (after) [6]: 521 | P3_MyD88 Rank (before) [7]: 1877
Sequence: GWIREHLWPLLKQRMT

P3_MyD88 Rank (after) [6]: 514 | P3_MyD88 Rank (before) [7]: 1697
Sequence: YTALTNSSFHTFRDNH

P8_MyD88 Rank (after) [13]: 708 | P8_MyD88 Rank (before) [14]: 2455
Sequence: DWVWDYMLTNLEGPAG

Rank (after) [10]: 407 | Rank (before) [11]: 1723
Sequence: YAASPWWFDELVRIVC

P8_MyD88 Rank (after) [1]: 607 | P8_MyD88 Rank (before) [2]: 3631
Sequence: IDDDHLTYLVRLLYSL

Rank (after) [10]: 412 | Rank (before) [11]: 1290
Sequence: SSSFALHELATILEAL

Population [3]: 0.00466%
Sequence: SSFRECLWRLLELSKK

Rank (after) (P3_MyD88: rank by count after grouping): 150 | Rank (before) (P3_MyD88: rank by count before grouping): 3231
Sequence: SSFRKGLWRLLELLKK

Population [12]: 0.0274%
Sequence: LGYHWIDWEYFV

P8_MyD88 Rank (after) [1]: 674 | P8_MyD88 Rank (before) [2]: 2170
Sequence: VANILGYHCKGWENFV

Rank (after) [10]: 458 | Rank (before) [11]: 3506
Sequence: PQELEWFYERPVSLML

P3_MyD88 Rank (after) [13]: 730 | P3_MyD88 Rank (before) [14]: 1850
Sequence: GEDTRYTYRPSACDP

Rank (after) [8]: 1012 | Rank (before) [9]: 2747
Sequence: DPQDLDWFSERLVILF

P8_MyD88 Rank (after) [1]: 636 | P8_MyD88 Rank (before) [2]: 1944
Sequence: YELDFSHFWLFEARGDA

P3_MyD88 Rank (after) [6]: 531 | P3_MyD88 Rank (before) [7]: 2536
Sequence: LKEESWRRAQEKAGKL

P8_MyD88 Rank (after) [13]: 676 | P8_MyD88 Rank (before) [14]: 3070
Sequence: DIQWALQKLMQIMEAF

P8_MyD88 Rank (after) [1]: 593 | P8_MyD88 Rank (before) [2]: 3670
Sequence: MFGGDTFMIFWILLA

Rank (after) [10]: 178 | Rank (before) [11]: 227
Sequence: IFISHLYNSLTNAGIY

Rank (after) [10]: 185 | Rank (before) [11]: 251
Sequence: SPWALYELVEILTAYK

Rank (after) [10]: 476 | Rank (before) [11]: 2687
Sequence: DPQARDCFYERLVSLF

Population [3]: 0.00408%
Sequence: SSFRKGLWRLLELSKK

P8_MyD88 Rank (after) [13]: 695 | P8_MyD88 Rank (before) [14]: 1302
Sequence: FGDHRMWWEDLVGIVD

P3_MyD88 Rank (after) [6]: 495 | P3_MyD88 Rank (before) [7]: 3071
Sequence: SEMRVVEDGSVSPLEM

Rank (after) [10]: 134 | Rank (before) [11]: 158 | Population [12]: 0.00925%
Sequence: WWIQALAEVANMAGED

P8_MyD88 Rank (after) [1]: 658 | P8_MyD88 Rank (before) [2]: 2657
Sequence: DPQVLEWFYERLVSMF

From article PMC11714206, “Massively Parallel Screening of Toll/Interleukin‐1 Receptor (TIR)‐Derived Peptides Reveals Multiple Toll‐Like Receptors (TLRs)‐Targeting Immunomodulatory Peptides” (Advanced Science, 2024)
